Data from PubChem BioAssay AID1963870 (Molecular Pharmacology Branch, DTP, NCI, 2024).

Tested on: 292921-168-R-J2-PDC KRAS tumor spheroid viability
Experiment: Anticancer human tumor 292921-168-R-J2-PDC patient-derived pancreatic carcinoma cell line growth inhibition [KRAS2]
Conditions: spheroids with HUVEC and MSC; for viability, T/C: stronger effect = lower value
Procedure, shortened: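 KRAS-mutant tumor cells were grown as spheroids with HUVEC endothelial cells and human MSCs as stroma. Targeted agents were tested alone and with KRAS pathway inhibitors. Doses started at or near clinical Cmax, or 10 microM, descending half-log.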

[1] = curve of first compound, second compound 0.1 µM
[2] = curve of first compound, second compound 0.316 µM
[3] = curve of first compound, second compound 1 µM
[4] = curve of first compound, second compound 3.16 µM
[5] = curve of first compound, second compound 10 µM
[6] = second compound 0.1 µM, first compound 0.0316 µM
[7] = second compound 0.1 µM, first compound 0.1 µM
[8] = second compound 0.1 µM, first compound 0.316 µM
[9] = second compound 0.1 µM, first compound 1 µM
[10] = second compound 0.1 µM, first compound 3.16 µM
[11] = second compound 0.1 µM, first compound 10 µM
[12] = second compound 0.316 µM, first compound 0.0316 µM
[13] = second compound 0.316 µM, first compound 0.1 µM
[14] = second compound 0.316 µM, first compound 0.316 µM
[15] = second compound 0.316 µM, first compound 1 µM
[16] = second compound 0.316 µM, first compound 3.16 µM
[17] = second compound 0.316 µM, first compound 10 µM
[18] = second compound 1 µM, first compound 0.0316 µM
[19] = second compound 1 µM, first compound 0.1 µM
[20] = second compound 1 µM, first compound 0.316 µM
[21] = second compound 1 µM, first compound 1 µM
[22] = second compound 1 µM, first compound 3.16 µM
[23] = second compound 1 µM, first compound 10 µM
[24] = second compound 3.16 µM, first compound 0.0316 µM
[25] = second compound 3.16 µM, first compound 0.1 µM
[26] = second compound 3.16 µM, first compound 0.316 µM
[27] = second compound 3.16 µM, first compound 1 µM
[28] = second compound 3.16 µM, first compound 3.16 µM
[29] = second compound 3.16 µM, first compound 10 µM
[30] = second compound 10 µM, first compound 0.0316 µM
[31] = second compound 10 µM, first compound 0.1 µM
[32] = second compound 10 µM, first compound 0.316 µM
[33] = second compound 10 µM, first compound 1 µM
[34] = second compound 10 µM, first compound 3.16 µM
[35] = second compound 10 µM, first compound 10 µM
[36] = second compound 0.1 µM, first compound 0.00316 µM
[37] = second compound 0.1 µM, first compound 0.01 µM
[38] = second compound 0.316 µM, first compound 0.00316 µM
[39] = second compound 0.316 µM, first compound 0.01 µM
[40] = second compound 1 µM, first compound 0.00316 µM
[41] = second compound 1 µM, first compound 0.01 µM
[42] = second compound 3.16 µM, first compound 0.00316 µM
[43] = second compound 3.16 µM, first compound 0.01 µM
[44] = second compound 10 µM, first compound 0.00316 µM
[45] = second compound 10 µM, first compound 0.01 µM
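Further: drug exposure lasted seven days after spheroids formed for three days.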
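Wherever viability, T/C is given: percent of DMSO vehicle control viability which is 100%.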

Compound	IC50 [1] [nM]	IC50 [2] [nM]	IC50 [3] [nM]	IC50 [4] [nM]	IC50 [5] [nM]	viability, T/C [6] [%]	viability, T/C [7] [%]	viability, T/C [8] [%]	viability, T/C [9] [%]	viability, T/C [12] [%]	viability, T/C [13] [%]	viability, T/C [14] [%]	viability, T/C [15] [%]	viability, T/C [18] [%]	viability, T/C [19] [%]	viability, T/C [20] [%]	viability, T/C [24] [%]	viability, T/C [25] [%]	viability, T/C [30] [%]	viability, T/C [31] [%]	further results
CC(=O)Nc1cccc(-n2c(=O)n(C3CC3)c(=O)c3c(Nc4ccc(I)cc4F)n(C)c(=O)c(C)c32)c1	–	–	–	–	–	–	–	–	–	–	–	–	–	–	–	–	–	–	–	–	viability, T/C (compound 0.0001 µM): 73.6% [middle of 5 runs]; viability, T/C (compound 0.000316 µM): 51.5% [middle of 5 runs]; viability, T/C (compound 0.001 µM): 28.9% [middle of 5 runs]; viability, T/C (compound 0.00316 µM): 17.8% [middle of 5 runs]; viability, T/C (compound 0.01 µM): 12.7% [middle of 5 runs]; viability, T/C (compound 0.0316 µM): 8.87% [middle of 4 runs]; IC50 (curve of compound): 0.328 nM [middle of 5 runs]
CC1(C)CCC(CN2CCN(c3ccc(C(=O)NS(=O)(=O)c4ccc(NCC5CCOCC5)c([N+](=O)[O-])c4)c(Oc4cnc5[nH]ccc5c4)c3)CC2)=C(c2ccc(Cl)cc2)C1 + CNCc1ccccc1-c1csc(C(C)Nc2nc(C)nc3cc(OC)c(OC)cc23)c1	1950	2130	1380	< 31.6	< 31.6	94.3	93.4	102	88.4	87.7	86.9	94.4	86.6	60.5	62.5	68.2	0.12	1.9	0.08	0.08	viability, T/C [10]: 22%; viability, T/C [11]: 8.05%; viability, T/C [16]: 30.8%; viability, T/C [17]: 6.47%; viability, T/C [21]: 66.6%; viability, T/C [22]: 13%; viability, T/C [23]: 5.94%; viability, T/C [26]: 0.25%; viability, T/C [27]: 0.79%; viability, T/C [28]: 0.4%; viability, T/C [29]: 0.64%; viability, T/C [32]: 0.23%; viability, T/C [33]: 0.08%; viability, T/C [34]: 0.09%; viability, T/C [35]: 0.28%
CCN1CCN(Cc2ccc(Nc3ncc(F)c(-c4cc(F)c5nc(C)n(C(C)C)c5c4)n3)nc2)CC1 + COc1cc2nc(C)nc(NC(C)c3cc(N)cc(C(F)(F)F)c3)c2cc1OC1CCOC1	20.7	13.2	9.76	3.28	< 3.16	42.2	36	29.8	22.2	39.2	32.8	28.4	22.1	40.3	30.8	25.7	30.8	22.9	14.7	14.8	viability, T/C [36]: 74.7%; viability, T/C [37]: 60.1%; viability, T/C [38]: 67.4%; viability, T/C [39]: 54.1%; viability, T/C [40]: 60.7%; viability, T/C [41]: 49.7%; viability, T/C [21]: 21.3%; viability, T/C [42]: 51%; viability, T/C [43]: 35.6%; viability, T/C [26]: 22%; viability, T/C [27]: 18.6%; viability, T/C [44]: 22.8%; viability, T/C [45]: 15.9%; viability, T/C [32]: 12.2%; viability, T/C [33]: 0.58%
O=C(c1cc(Cc2n[nH]c(=O)c3ccccc23)ccc1F)N1CCN(C(=O)C2CC2)CC1 + CNCc1ccccc1-c1csc(C(C)Nc2nc(C)nc3cc(OC)c(OC)cc23)c1	6100	5510	4920	< 31.6	< 31.6	98	109	99.2	87.6	88.7	79	76.8	74	83.5	68.3	69.9	0.14	0.13	0.33	0.1	viability, T/C [10]: 61.2%; viability, T/C [11]: 41.6%; viability, T/C [16]: 62.3%; viability, T/C [17]: 37.6%; viability, T/C [21]: 70.1%; viability, T/C [22]: 52.3%; viability, T/C [23]: 42.4%; viability, T/C [26]: 0.11%; viability, T/C [27]: 0.1%; viability, T/C [28]: 0.1%; viability, T/C [29]: 0.17%; viability, T/C [32]: 0.1%; viability, T/C [33]: 0.11%; viability, T/C [34]: 0.11%; viability, T/C [35]: 0.19%
Cn1ncnc1[C@H]1c2n[nH]c(=O)c3cc(F)cc(c23)N[C@@H]1c1ccc(F)cc1 + COc1cc2nc(C)nc(NC(C)c3cc(N)cc(C(F)(F)F)c3)c2cc1OC1CCOC1	> 100	> 100	> 100	37.3	< 0.316	68.6	60.5	–	–	70.3	64.3	–	–	69.6	57.4	–	52.1	42	23.6	23.9	viability, T/C (second compound 0.1 µM, first compound 0.000316 µM): 93.5%; viability, T/C (second compound 0.1 µM, first compound 0.001 µM): 92.1%; viability, T/C [36]: 85.8%; viability, T/C [37]: 85.7%; viability, T/C (second compound 0.316 µM, first compound 0.000316 µM): 84.2%; viability, T/C (second compound 0.316 µM, first compound 0.001 µM): 87%; viability, T/C [38]: 84.8%; viability, T/C [39]: 84.4%; viability, T/C (second compound 1 µM, first compound 0.000316 µM): 84%; viability, T/C (second compound 1 µM, first compound 0.001 µM): 84.9%; viability, T/C [40]: 74.9%; viability, T/C [41]: 73.3%; viability, T/C (second compound 3.16 µM, first compound 0.000316 µM): 63.5%; viability, T/C (second compound 3.16 µM, first compound 0.001 µM): 60.1%; viability, T/C [42]: 56.4%; viability, T/C [43]: 57.7%; viability, T/C (second compound 10 µM, first compound 0.000316 µM): 26.1%; viability, T/C (second compound 10 µM, first compound 0.001 µM): 27.6%; viability, T/C [44]: 30.6%; viability, T/C [45]: 22.6%
